US10442788B2, “Hepatitis B antiviral agents” (ENANTA PHARMACEUTICALS, INC., priority 2015, dated 2019)

tested on: HBV; assay: HepAD38 antiviral assay: reduction of viral product accumulation (virion DNA by qPCR, HBsAg or HBeAg by ELISA); assay type: cell-based; conditions: Hepatitis B virus, 120 h; HepAD38 cells, five days after compound addition; 50% reduction of viral product accumulation relative to no drug controls; read-out: HepAD38 EC50
Protocol: Methods: HepAD38 cells are maintained as previously reported (Ladner et al, Antimicrob. Agents Chemother. 1997, […], 1715). Briefly, cells are passaged upon attaining confluency in DMEM/F12 media in the presence of 10% FBS, Penn/Strep, 250 μg/mL G418, and 1 ug/ml tetracycline. Novel compounds are screened by first washing cells three times with PBS to remove tetracycline, and plating in 96 well plates at 35,000 cells/well. Compounds dissolved in DMSO are then diluted 1:200 into wells containing cells. Five days after compound addition, material is harvested for analysis. For an extended 8 day analysis, cells are plated and treated as described above, but media and compound are refreshed on d2 and d5 post initial treatment.
On harvest day, virion DNA is obtained by lysing with Sidestep Lysis and Stabilization Buffer and then quantified via quantitative real time PCR. Commercially available ELISA kits are used to quantitate the viral proteins HBsAg (Alpco) or HbeAg (US Biological) by following the manufacturer's recommended protocol after diluting samples to match the linear range of their respective assays. Irrespective of readout, compound concentrations that reduce viral product accumulation in the cell lysates or supernatants by 50% relative to no drug controls (EC50) are reported; EC50 ranges are as follows: A<1 μM; B 1-10 μM; C>10 μM.

Row | SMILES | EC50
1 | O=S(=O)(c1cc(-c2nc(-c3ccc(Cl)c(C4CC4)c3)c[nH]2)ccc1Cl)N1CCC(O)CC1 [Example 17] | < 1 µM
2 | O=S(=O)(c1cc(-c2nc(-c3ccc(Br)c(F)c3)c[nH]2)ccc1Cl)N1CC[C@@H](O)[C@@H](O)CC1 [Example 19] | < 1 µM
3 | O=S(=O)(c1cc(-c2nc(-c3ccc(Br)c(F)c3)c[nH]2)ccc1Cl)N1CC[C@@H](O)[C@H](O)CC1 [Example 20] | < 1 µM
4 | O=S(=O)(c1cc(-c2nc(-c3ccc(Br)c(F)c3)c[nH]2)ccc1Cl)N1C[C@@H](O)C[C@H]2C[C@H]2C1 [Example 34] | < 1 µM
5 | O=S(=O)(c1cc(-c2nc(-c3cccs3)c[nH]2)ccc1Cl)N1CCC(O)CC1 [Example 70] | 1 to 10 µM
6 | O=S(=O)(c1cc(-c2nc(-c3ccccc3Br)c[nH]2)ccc1Cl)N1CCC(O)CC1 [Example 74] | > 10 µM
7 | O=S(=O)(c1cc(-c2nc(-c3ccccc3Cl)c[nH]2)ccc1Cl)N1CCC(O)CC1 [Example 75] | > 10 µM
8 | O=S(=O)(c1cc(-c2nc(-c3ccc4ocnc4c3)c[nH]2)ccc1Cl)N1CCC(O)CC1 [Example 76] | > 10 µM
9 | COCCN(C)S(=O)(=O)c1cc(-c2ncc(-c3ccc(F)c(Br)c3)[nH]2)ccc1Cl [Example 77] | > 10 µM
10 | O=S(=O)(c1cc(-c2nc(-c3cc(F)c(F)c(Cl)c3)c[nH]2)ccc1Cl)N1CCC(O)CC1 [Example 78] | > 10 µM
11 | O=S(=O)(c1cc(-c2nc(-c3cscn3)c[nH]2)ccc1Cl)N1CCC(O)CC1 [Example 80] | > 10 µM
12 | O=S(=O)(c1cc(-c2nc(-c3nccs3)c[nH]2)ccc1Cl)N1CCC(O)CC1 [Example 81] | > 10 µM
13 | O=S(=O)(c1cc(-c2nc(-c3ccc(F)cc3F)c[nH]2)ccc1Cl)N1CCC(O)CC1 [Example 84] | 1 to 10 µM
14 | O=S(=O)(c1cc(-c2nc(-c3cccc(F)c3F)c[nH]2)ccc1Cl)N1CCC(O)CC1 [Example 85] | > 10 µM
15 | O=S(=O)(c1cc(-c2nc(-c3cc(F)cc(F)c3)c[nH]2)ccc1Cl)N1CCC(O)CC1 [Example 86] | 1 to 10 µM
16 | COc1ccccc1-c1c[nH]c(-c2ccc(Cl)c(S(=O)(=O)N3CCC(O)CC3)c2)n1 [Example 88] | 1 to 10 µM
17 | Cc1ccc(-c2c[nH]c(-c3ccc(Cl)c(S(=O)(=O)N4CCC(O)CC4)c3)n2)cc1 [Example 96] | 1 to 10 µM
18 | N#Cc1ccc(-c2c[nH]c(-c3ccc(Cl)c(S(=O)(=O)N4CCC(O)CC4)c3)n2)cc1 [Example 97] | < 1 µM
19 | COc1ccc(-c2c[nH]c(-c3ccc(Cl)c(S(=O)(=O)N4CCC(O)CC4)c3)n2)cc1 [Example 98] | 1 to 10 µM
20 | O=S(=O)(c1cc(-c2nc(-c3ccc(C(F)(F)F)cc3)c[nH]2)ccc1Cl)N1CCC(O)CC1 [Example 99] | > 10 µM
21 | CC(C)(C)CC(=O)NCCCNS(=O)(=O)c1cc(-c2nc(-c3ccc(Br)c(F)c3)c[nH]2)ccc1Cl [Example 141] | < 1 µM

Row | SMILES | EC50
22 | N#Cc1ccc(-c2c[nH]c(-c3ccc(Cl)c(S(=O)(=O)N4CCC(O)CC4)c3)n2)cc1Cl [Example 149] | < 1 µM
23 | N#Cc1cc(-c2c[nH]c(-c3ccc(Cl)c(S(=O)(=O)N4CCC(O)CC4)c3)n2)ccc1C(F)(F)F [Example 150] | < 1 µM
24 | O=S(=O)(c1cc(-c2nc(-c3ccc(C(F)(F)F)c(Cl)c3)c[nH]2)ccc1Cl)N1CCC(O)CC1 [Example 151] | < 1 µM
25 | O=S(=O)(c1cc(-c2nc(-c3ccc(Cl)c(C(F)(F)F)c3)c[nH]2)ccc1Cl)N1CCC(O)CC1 [Example 152] | < 1 µM
26 | NS(=O)(=O)c1cc(-c2nc(-c3ccc(Br)c(F)c3)c[nH]2)ccc1Cl [Example 153] | 1 to 10 µM
27 | N#Cc1ccc(-c2c[nH]c(-c3ccc(Cl)c(S(=O)(=O)N4CCC(O)CC4)c3)n2)cc1C(F)(F)F [Example 155] | < 1 µM
28 | N#Cc1cc(-c2c[nH]c(-c3ccc(Cl)c(S(=O)(=O)N4CCC(O)CC4)c3)n2)ccc1C1CC1 [Example 156] | 1 to 10 µM
29 | O=S(=O)(c1cc(-c2nc(-c3ccc(C4CC4)c(Cl)c3)c[nH]2)ccc1Cl)N1CCC(O)CC1 [Example 157] | < 1 µM
30 | CC(C)(C)c1ccc(-c2c[nH]c(-c3ccc(Cl)c(S(=O)(=O)N4CCC(O)CC4)c3)n2)cc1 [Example 158] | < 1 µM
31 | O=S(=O)(c1cc(-c2nc(-c3ccccc3O)c[nH]2)ccc1Cl)N1CCC(O)CC1 [Example 159] | 1 to 10 µM
32 | C[C@H](N)C(=O)OC1CCN(S(=O)(=O)c2cc(-c3nc(-c4ccc(F)c(Br)c4)c[nH]3)ccc2Cl)CC1 [Example 160] | 1 to 10 µM
33 | O=S(=O)(c1cc(-c2nc(-c3ccc(C(F)(F)F)c(C4CC4)c3)c[nH]2)ccc1Cl)N1CCC(O)CC1 [Example 161] | < 1 µM
34 | CC(C)(C)c1cccc(-c2c[nH]c(-c3ccc(Cl)c(S(=O)(=O)N4CCC(O)CC4)c3)n2)c1 [Example 162] | 1 to 10 µM
35 | O=S(=O)(c1cc(-c2nc(-c3ccc(Br)c(F)c3)c[nH]2)ccc1Cl)N1CC2COCC2C1 (stereo not shown) [Example 163] | < 1 µM
36 | COCC(C)NS(=O)(=O)c1cc(-c2nc(-c3ccc(Br)c(F)c3)c[nH]2)ccc1Cl (stereo not shown) [Example 164] | 1 to 10 µM
37 | O=C(c1ccccc1)N1CCN(S(=O)(=O)c2cc(-c3nc(-c4ccc(Br)c(F)c4)c[nH]3)ccc2Cl)CC1 [Example 165] | 1 to 10 µM
38 | O=C(Nc1ccccc1)C1CCN(S(=O)(=O)c2cc(-c3nc(-c4ccc(Br)c(F)c4)c[nH]3)ccc2Cl)CC1 [Example 166] | 1 to 10 µM
39 | CC(C)(C)OC(=O)NC[C@@H]1[C@H]2CN(S(=O)(=O)c3cc(-c4ncc(-c5ccc(F)c(Br)c5)[nH]4)ccc3Cl)C[C@@H]12 [Example 167] | 1 to 10 µM
40 | COC(=O)NC[C@@H]1[C@H]2CN(S(=O)(=O)c3cc(-c4ncc(-c5ccc(F)c(Br)c5)[nH]4)ccc3Cl)C[C@@H]12 [Example 168] | < 1 µM
41 | C[C@H](NC(=O)OC(C)(C)C)C(=O)OC1CCN(S(=O)(=O)c2cc(-c3nc(-c4ccc(F)c(Br)c4)c[nH]3)ccc2Cl)CC1 [Example 169] | < 1 µM
42 | N#Cc1ccc(-c2c[nH]c(-c3ccc(Cl)c(S(=O)(=O)N4CCC(O)CC4)c3)n2)cc1C1CC1 [Example 170] | < 1 µM

Row | SMILES | EC50
43 | O=S(=O)(c1cc(-c2nc(-c3ccc(C4CC4)c(C(F)(F)F)c3)c[nH]2)ccc1Cl)N1CCC(O)CC1 [Example 171] | < 1 µM
44 | COC(=O)NCCC(C)NS(=O)(=O)c1cc(-c2nc(-c3ccc(Br)c(F)c3)c[nH]2)ccc1Cl (stereo not shown) [Example 172] | < 1 µM
45 | COC(=O)NCCCCNS(=O)(=O)c1cc(-c2nc(-c3ccc(Br)c(F)c3)c[nH]2)ccc1Cl [Example 173] | < 1 µM
46 | CC(C)(C)OC(=O)NCCCCNS(=O)(=O)c1cc(-c2nc(-c3ccc(Br)c(F)c3)c[nH]2)ccc1Cl [Example 174] | < 1 µM
47 | COC(=O)NCCCCCNS(=O)(=O)c1cc(-c2nc(-c3ccc(Br)c(F)c3)c[nH]2)ccc1Cl [Example 175] | < 1 µM
48 | CC(C)(C)OC(=O)NCCCCCNS(=O)(=O)c1cc(-c2nc(-c3ccc(Br)c(F)c3)c[nH]2)ccc1Cl [Example 176] | < 1 µM
49 | COC(=O)OCCCNS(=O)(=O)c1cc(-c2nc(-c3ccc(Br)c(F)c3)c[nH]2)ccc1Cl [Example 177] | < 1 µM
50 | COC(=O)N(C)CCCNS(=O)(=O)c1cc(-c2nc(-c3ccc(Br)c(F)c3)c[nH]2)ccc1Cl [Example 178] | < 1 µM
51 | O=C(NCCCNS(=O)(=O)c1cc(-c2nc(-c3ccc(Br)c(F)c3)c[nH]2)ccc1Cl)OCc1ccccc1 [Example 180] | < 1 µM
52 | O=C(NCCCNS(=O)(=O)c1cc(-c2nc(-c3ccc(Br)c(F)c3)c[nH]2)ccc1Cl)c1ccccc1 [Example 181] | < 1 µM
53 | CC(C)(C)OC(=O)NCC1CN(S(=O)(=O)c2cc(-c3ncc(-c4ccc(F)c(Br)c4)[nH]3)ccc2Cl)C1 [Example 182] | < 1 µM
54 | CC(C)(C)OC(=O)NC1CN(S(=O)(=O)c2cc(-c3ncc(-c4ccc(Br)c(F)c4)[nH]3)ccc2Cl)C1 [Example 183] | < 1 µM
55 | O=S(=O)(c1cc(-c2nc(-c3ccc(Br)c(F)c3)c(Cl)[nH]2)ccc1Cl)N1CCC(O)CC1 [Example 184] | > 10 µM
56 | COC(=O)NCC(O)CNS(=O)(=O)c1cc(-c2nc(-c3ccc(Br)c(F)c3)c[nH]2)ccc1Cl (stereo not shown) [Example 185] | < 1 µM
57 | CNC(=O)OCCCNS(=O)(=O)c1cc(-c2nc(-c3ccc(Br)c(F)c3)c[nH]2)ccc1Cl [Example 186] | < 1 µM
58 | COC(=O)NC(C)CCNS(=O)(=O)c1cc(-c2nc(-c3ccc(Br)c(F)c3)c[nH]2)ccc1Cl (stereo not shown) [Example 188] | < 1 µM
59 | COC(=O)NCCCN(C)S(=O)(=O)c1cc(-c2nc(-c3ccc(Br)c(F)c3)c[nH]2)ccc1Cl [Example 190] | < 1 µM
60 | N#CCCCCNS(=O)(=O)c1cc(-c2nc(-c3ccc(Br)c(F)c3)c[nH]2)ccc1Cl [Example 191] | < 1 µM
61 | COC(=O)NC1(C(=O)NCCCNS(=O)(=O)c2cc(-c3nc(-c4ccc(Br)c(F)c4)c[nH]3)ccc2Cl)CC1 [Example 192] | < 1 µM
62 | O=C(CCCNS(=O)(=O)c1cc(-c2nc(-c3ccc(Br)c(F)c3)c[nH]2)ccc1Cl)Nc1ccccc1 [Example 194] | < 1 µM
63 | O=S(=O)(c1cc(-c2nc(-c3ccc(Br)c(F)c3)c[nH]2)ccc1Cl)N1CCN(c2cccnc2)CC1 [Example 195] | < 1 µM

same assay, conditions: Hepatitis B virus, HePAD38, 120 h, read-out: HepAD38 EC50 (μM)

Row | SMILES | EC50
64 | O=C(NCCCNS(=O)(=O)c1cc(-c2nc(-c3ccc(Br)c(F)c3)c[nH]2)ccc1Cl)Oc1ccccc1 [Example 179] | < 1 µM
